Data reported in ChEMBL document CHEMBL1201862, “PubChem BioAssay data set” (2004).
Activity calls are given as the source filed them.

Assays:
[1] = target: Cytochrome P450 2D6 (Homo sapiens, UniProt P10635); test: qHTS Assay for Inhibitors and Substrates of Cytochrome P450 2D6. [Related pubchem assays: 410 ]; format: ADME; settings: read-out: Potency
[2] = target: Lysosomal acid glucosylceramidase (Homo sapiens, UniProt P04062); test: Dose response cell-based high throughput screening assay to identify enhancers of beta-glucosidase activity. [Related pubchem assays: 784 ]; format: functional
[3] = cytotoxicity toward NIH3T3 fibroblasts, dose response, counter-screen, cell-based, ATP luminescence, mouse fibroblasts (AID 2010); format: functional;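 note: cells exposed to compound for about 90 hours before reading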
[4] = Luminescent dose response cell-based high throughput screening assay for inhibitors of the Janus kinase 2 mutant JAK2V617F. [Related pubchem assays: 1446 (Primary screen.), 1521 (Confirmation assay.), 1486 (Counter screen.)]; format: functional
[5] = target: T1, Cytochrome P450 1A2 (Homo sapiens, UniProt P05177);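 note: PubChem cytochrome P450 panel assay, CYP1A2 panel member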
T1 sequence (P05177 whole entry): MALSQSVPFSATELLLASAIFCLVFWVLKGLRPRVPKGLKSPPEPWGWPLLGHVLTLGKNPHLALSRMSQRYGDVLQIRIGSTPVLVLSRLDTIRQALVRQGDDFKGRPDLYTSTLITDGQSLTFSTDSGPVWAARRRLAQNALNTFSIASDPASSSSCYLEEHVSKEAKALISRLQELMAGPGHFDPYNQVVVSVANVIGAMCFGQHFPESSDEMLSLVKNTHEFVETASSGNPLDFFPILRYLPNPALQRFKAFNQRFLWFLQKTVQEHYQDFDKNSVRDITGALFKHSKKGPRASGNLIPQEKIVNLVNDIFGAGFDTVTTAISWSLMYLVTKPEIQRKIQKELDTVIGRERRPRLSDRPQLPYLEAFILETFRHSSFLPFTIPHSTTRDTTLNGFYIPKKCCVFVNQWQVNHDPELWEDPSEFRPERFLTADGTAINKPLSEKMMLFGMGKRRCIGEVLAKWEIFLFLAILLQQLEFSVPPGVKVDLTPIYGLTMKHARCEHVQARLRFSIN

[6] = target: Cytochrome P450 2C19 (Homo sapiens, UniProt P33261); test: Cytochrome panel assay with activity outcomes. Panel member name: p450-cyp2c19 Compounds with AC50 equal or less than 10 uM are considered active; format: functional; settings: read-out: AC50
[7] = inhibitors of intracellular T. cruzi replication, confirmation, NIH3T3 host cells, beta-gal luminescence (AID 2044); format: functional, cell-based;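 note: intracellular parasites grown in NIH/3T3 mouse fibroblasts as host cells; luminescent beta-galactosidase reporter signal from transgenic T. cruzi replicating inside host cells; inhibitors lower the luminescence signal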
[8] = growth suppression of PTEN-null colon cells, dose response, cell-based, HCT116 PTEN knockout (AID 1047); format: functional;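 note: HCT116 colon tumor cells with PTEN knocked out; cells exposed to compound for 60 hours before readout; potency for loss of cell viability measured by luminescence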
[9] = cytotoxicity in HPDE-C7 cells, cell-based, fluorescence, HTS (AID 430); format: functional; settings: Homo sapiens
[10] = growth suppression of beta-catenin-knockout colon cells, dose response, cell-based, HCT116, human colon tumor (AID 1045); format: functional;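 note: HCT116 colon tumor cells with beta catenin knocked out; cells exposed to compound for 60 hours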
[11] = Shn3 3'UTR reporter inhibitors, dose response, cell-based, Clone20 osteoblasts, firefly luciferase, cherry-picked (AID 624132); format: functional;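 note: firefly luciferase luminescence from reporter carrying the Shn3 3'UTR in osteoblasts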
[12] = HepG2 cell cytotoxicity, dose response, cytotoxicity control for Shn3 inhibitor project, CellTiter-Glo, cherry-picked (AID 624134); format: functional, cell-based
[13] = control 3'UTR Renilla luciferase suppression, dose response, counter-screen for Shn3 inhibitor project, cell-based, Clone20-Shn3RL, cherry-picked (AID 624133); format: functional
[14] = cytotoxicity in KRAS-transformed pancreatic duct cells, primary screen, cell-based, fluorescence, HTS (AID 431); format: functional; settings: Homo sapiens;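 note: cell line used: HPDE-C7K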
[15] = HIV-1 Env-mediated cell fusion inhibitors, dose response, CCR5-tropic Env (AID 2279); format: functional
[16] = target: Protein-tyrosine kinase 2-beta (Homo sapiens, UniProt Q14289);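 note: potency of inhibitors of PYK2 kinase phosphorylation of poly-GT substrate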
[17] = target: Major prion protein (Homo sapiens, UniProt P04156); format: functional, cell-based
[18] = cells
[19] = C. albicans growth with fluconazole, confirmation, fluorescence, retest (AID 2467); format: functional, cell-based
[20] = system: Streptococcus sp. 'group A'; test: growth inhibition of control SK(-) GAS strain, dose response, counter-screen for streptokinase expression inhibitor project, luminescence, kanamycin, BacTiterGlo, confirmation (AID 1900); format: functional, organism-based
[21] = target: T2, Streptokinase A (Streptococcus pyogenes serotype M1, UniProt P10520); test: S. pyogenes streptokinase expression inhibitors, potency, dose response, plasminogen activation absorbance, OD405 (AID 1914); format: functional, Streptococcus pyogenes M1 GAS;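 note: secreted streptokinase activity via plasminogen activation per viability signal from cell pellet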
T2 sequence (P10520 whole entry): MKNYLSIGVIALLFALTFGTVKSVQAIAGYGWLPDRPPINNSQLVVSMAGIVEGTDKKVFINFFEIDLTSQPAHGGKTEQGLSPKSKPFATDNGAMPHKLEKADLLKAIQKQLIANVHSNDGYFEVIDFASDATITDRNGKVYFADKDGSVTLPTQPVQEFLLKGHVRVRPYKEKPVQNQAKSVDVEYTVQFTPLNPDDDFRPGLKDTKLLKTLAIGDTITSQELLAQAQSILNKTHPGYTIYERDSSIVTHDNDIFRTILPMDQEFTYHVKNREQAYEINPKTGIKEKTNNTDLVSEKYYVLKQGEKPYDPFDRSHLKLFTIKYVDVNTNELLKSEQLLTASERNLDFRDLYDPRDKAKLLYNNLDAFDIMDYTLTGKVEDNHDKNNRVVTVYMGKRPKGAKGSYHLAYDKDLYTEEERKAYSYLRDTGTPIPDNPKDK

[22] = target: 26S proteasome non-ATPase regulatory subunit 14 (Homo sapiens, UniProt O00487); test: inhibition of proteasome subunit RPN11 – biochemical, fluorescence polarization, uHTS hits, confirmation (AID 602368); format: functional
[23] = target: Prothrombin (Bos taurus, UniProt P00735); test: thrombin inhibition, dose response, biochemical, fluorescence polarization, uHTS hits (AID 602369); format: functional
[24] = system: INS1; test: beta cell apoptosis inhibitors, cytokine rescue, dose response, luminescence, retest (AID 449756); format: functional, cell-based; settings: Rattus norvegicus;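 note: cell death triggered by IL-1 beta plus TNF-alpha plus IFN-gamma mixture; protective hits raise ATP signal compared with cytokine alone wells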
[25] = NIH-3T3 fibroblast cytotoxicity, dose response, cytotoxicity control, cell-based, fluorescence, Alamar Blue, secondary assay (AID 2327); format: functional;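 note: NIH-3T3 mouse fibroblasts cultured with fluconazole at 8 µg/mL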
[26] = target: 72 kDa type IV collagenase (Homo sapiens, UniProt P08253); test: Dose Response validation of uHTS RPN11 inhibitor hits using a MMP-2 Fluorescence assay.; format: functional
[27] = system: Streptococcus; test: Group A Streptococcus viability loss, dose response, counter-screen for streptokinase expression inhibitor project, luminescence, BacTiterGlo (AID 1915); format: functional, organism-based;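 note: potency for reduction of bacterial viability or growth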
[28] = A Cell Based Secondary Assay To Explore Cytotoxicity of Compounds that Sensitize Mycobacterium Tuberculosis to Beta-Lactam Antibiotics.; format: functional

For `COc1ccc(OCC2CC3C(CCC(C)C3c3ccc(Br)cc3)C(=O)O2)cc1` (stereo not given), the AC50 [1] was 7.94 µM (inconclusive).

In the case of `Cc1ccc(N2C(=O)Nc3ccc(Br)cc3C2(O)C(=O)NCCCN(C)C)cc1C` (stereo not given), the EC50 [2] is reported as > 50 µM (not active).

With `COc1ccc(N2CCc3c(C)nc4c(OC)cc(OC)cc4c32)c(OC)c1` the EC50 [3] was > 60 µM (not active), the IC50 [4] was 1.87 µM (active) and the AC50 [5] was 22.4 µM (inconclusive). For the same compound, the AC50 [6] was 28.2 µM (inconclusive) and the EC50 [7] was 0.839 µM (active).

For `c1ccc(Cn2c(SCc3nc4ccccc4s3)nnc2-c2ccco2)cc1`, the EC50 [2] was > 50 µM (not active).

With `Cc1cc(C)c(O)c(-c2cc(C(=O)Nc3ccc(S(=O)(=O)N4CCOCC4)cc3)[nH]n2)c1` the EC50 [8] was 8.35 µM (active), the EC50 [9] was 9.42 µM (active) and the EC50 [10] was 10 µM (active). The AC50 [11] was 5.48 µM (active), the AC50 [12] was 19.9 µM (active) and the AC50 [13] was 7.37 µM (active). For the same compound, the EC50 [14] was 9.32 µM (active).

In the case of `CCOc1ccc(CCNC(=O)c2ccc3c(=O)[nH]c4c(C(=O)NC(C)C)sc(=S)n4c3c2)cc1`, the IC50 [15] is reported as 30.1 µM (active).

For `Cc1cc(NC(=O)CSc2nc(C(C)C)nc3ccccc23)no1`, the IC50 [16] was > 69.5 µM (not active), the IC50 [17] was 0.936 µM (active) and the IC50 [18] was > 138 µM (inactive).

With `COc1cc([N+](=O)[O-])cc(/C=N/NC(=O)c2cc(-c3ccccc3)nc3ccccc23)c1O` the EC50 [19] was 2.08 µM (active), the EC50 [20] was 5.37 µM (active) and the EC50 [21] was > 150 µM (not active). The IC50 [22] was 22.3 µM (active), the IC50 [23] was 75.1 µM (active) and the AC50 [24] was 3.63 µM (active). For the same compound, the IC50 [15] was 31.7 µM (active), the EC50 [25] was 22.5 µM (inconclusive) and the IC50 [26] was 3.79 µM (active). For the same compound, the EC50 [27] was 8.58 µM (active).

In the case of `Cc1cc(O)nc(N/N=C/c2c(F)c(F)c(F)c(F)c2F)n1`, the CC50 [28] is reported as > 40 µM (active).
